Patent publication US10548865B1, “Compositions of citrulline” (Hubei Grand Biotechnology Co. Ltd., priority 2019, dated 2020)

System: mice
Assay: Loaded swimming test, exercise time to exhaustion
Type: in vivo
Conditions: intragastric, 1 hour prior to test
Experimental: Adult (8-10 weeks) male ICR mice were used in this study and purchased from Beijing Vital River Laboratory Animal Technology Co., Ltd. All the mice were provided with a normal diet and water ad libitum. All procedures were approved by institutional guidelines and the Animal Care and Use Committee (Huazhong University of Science and Technology, Wuhan, China) of the university's animal core facility. The mice were group-housed under a 12 h light-dark cycle (lights on at 8:00 a.m.), at consistent humidity (50±5%), and ambient temperature (22˜24° C.).
The animals were bred with three mice per cage in the laboratory, and were acclimatized for 1 week before the experiments. The mice were grouped randomly for each experiment. The mice in each group were given the corresponding dose amino acid and the control group was treated with the equal volume of normal saline (NS) through intragastric administration. Loaded swimming experiments were performed to assess the acute effect of the amino acids on endurance one hour after the treatment
The NS injection were purchased from Beijing Pharmaceutical Group Co., Ltd. The amino acid powders were dissolved in NS and then were intragastric administration to mice by lavage needle (Beijing Vital River Laboratory Animal Technology Co., Ltd.).
Acute effects on endurance performance were assessed by loaded swimming test one hour after the amino acid treatment. The swimming exercise was carried out in a tank (diameter 120 cm) filled with fresh water to 30-cm depth at 24±2° C. A tin wire (⅛ of body weight) was attached on the tail of the mouse. […] The length of time each mouse kept swimming before exhaustion (exercise time to exhaustion) was recorded. At the end of the session, the mice were removed from the water, dried with paper towels, and placed back in their home cages.
Sixty mice were randomly divided into four groups (n=15 per group). Each of the four group were treated with NS, citrulline (200 mg/kg body weight), GABA (150 mg/kg body weight), and citrulline/GABA mixture (200 mg/kg+150 mg/kg) respectively. The results were summarized below (Table 2 and FIG. 1).
The methods used here are the same as in Example 1, but GABA (150 mg/kg) was replaced by taurine (200 mg/kg). The results were summarized below (Table 3 and FIG. 2).
The methods used here are the same as in Example 1. Sixty mice were randomly divided into four groups (n=15 per group). Each of the four group were treated with NS, citrulline (75 mg/kg body weight), taurine (25 mg/kg body weight), and citrulline taurine mixture (75 mg/kg+25 mg/kg) respectively. The results were summarized below (Table 4 and FIG. 3).

[1] = Example 1, citrulline 200 mg/kg, GABA 150 mg/kg, mixture 200 mg/kg+150 mg/kg, male ICR mice
[2] = Example 2, citrulline 200 mg/kg, taurine 200 mg/kg, mixture 200 mg/kg+200 mg/kg
[3] = Example 3, lower doses, citrulline 75 mg/kg, taurine 25 mg/kg, mixture 75 mg/kg+25 mg/kg

SMILES	Average Time (s), exercise time to exhaustion [1]	Average Time (s), exercise time to exhaustion (Example 1, citrulline 200 mg/kg, GABA 150 mg/kg, mixture 200 mg/kg+150 mg/kg, male ICR mice, listed as citrulline)	Average Time (s), exercise time to exhaustion [2]	Increase of exercise time to exhaustion vs control [2]	Increase of exercise time to exhaustion vs control (Example 2, citrulline 200 mg/kg, taurine 200 mg/kg, mixture 200 mg/kg+200 mg/kg, listed as citrulline)	Average Time (s), exercise time to exhaustion [3]	Increase of exercise time to exhaustion vs control [3]	Increase of exercise time to exhaustion vs control (Example 3, lower doses, citrulline 75 mg/kg, taurine 25 mg/kg, mixture 75 mg/kg+25 mg/kg, listed as citrulline)	Increase of exercise time to exhaustion vs control (Example 2, citrulline 200 mg/kg, taurine 200 mg/kg, mixture 200 mg/kg+200 mg/kg, listed as taurine)	Increase of exercise time to exhaustion vs control (Example 3, lower doses, citrulline 75 mg/kg, taurine 25 mg/kg, mixture 75 mg/kg+25 mg/kg, listed as taurine)
NC(=O)NCCC[C@H](N)C(=O)O [Citrulline, L-citrulline]	245.4 s	about 245.4 s	194.6 s	15.6%	15.6%	207.7 s	23.4%	23.4%		
NCCCC(=O)O [GABA, gamma-aminobutyric acid, reference compound]	216.8 s									
NCCS(=O)(=O)O [Taurine, taurine]			208 s	23.6%		181 s	7.5%		23.6%	7.5%
